Values quoted from earlier work in US20260137644A1, “COMPOSITIONS INCLUDING CAFFEIC ACID PHENETHYL ESTER” (XMK THERAPEUTICS INC., priority 2022, published 2026).

Tests used:
NFAT = conditions: Jurkat cells
[1] = test system: carrageenin-induced inflammation

For `O=C(/C=C/c1ccc(O)c(O)c1)OCCc1ccccc1` [CAPE, 2-phenylethyl (E)-3-(3,4-dihydroxyphenyl)prop-2-enoate], the antimicrobial activity (Haemophilus influenzae) is given as “active”, the antimicrobial activity (Staphylococcus aureus) is given as “active” and the “binding with DNA and transcriptional activity of NFAT” value (NFAT) is given as “inhibition”. For the same molecule, the antimicrobial activity (Enterococcus faecalis) was “active”, the antimicrobial activity (Listeria monocytogenes) was “active” and the exudate volume [1] was “suppresses”. For the same molecule, the leukocytes relocation [1] was “suppresses” and the “interleukin-2 (IL-2) gene transcription and synthesis” value (interleukin-2 (IL-2)) was “inhibition”.
